EP1028947B1, “H3 RECEPTOR LIGANDS OF THE PHENYL-ALKYL-[…]” (SCHERING CORPORATION, priority 1997, dated 1999)

Key:
[1] = Blood levels of the compound (no method described); type: in vivo; details: compared with the preferred compounds of WO 95/14007; statement in words, no data
H3 receptors = target: T1, H3 receptors (Cavia porcellus, UniProt Q9JI35); experiment: H3-Receptor Binding Assay; details: guinea pig brain membranes; 3 nM [3H]R-a-methylhistamine or 3 nM [3H]Na-methylhistamine; 30°C for 30 min; HCl salt of the compound
T1 construct: The source of the H3 receptors in this experiment was guinea pig brain; from tissue; host or cells: guinea pig brain membranes
Protocol: H3-Receptor Binding Assay
The source of the H3 receptors in this experiment was guinea pig brain. The animals weighed 400-600 g. The brain tissue was homogenized using a Polytron in a solution of 50 mM Tris, pH 7.5. The final concentration of tissue in the homogenization buffer was 10% w/v. The homogenates were centrifuged at 1,000 x g for 10 min. in order to remove clumps of tissue and debris. The resulting supematants were then centrifuged at 50,000 x g for 20 min. in order to sediment the membranes, which were next washed three times in homogenization buffer (50,000 x g for 20 min. each). The membranes were frozen and stored at -70°C until needed.
The compound to be tested was dissolved in DMSO and then diluted into the binding buffer (50 mM Tris, pH 7.5) such that the final concentration was 2 µg/ml with 0.1% DMSO. Membranes were then added (400 µg of protein) to the reaction tubes. The reaction was started by the addition of 3 nM [^3H]R-a-methylhistamine (8.8 Ci/mmol) or 3 nM [^3H]N^a-methylhistamine (80 Ci/mmol) and continued under incubation at 30°C for 30 min. Bound ligand was separated from unbound ligand by filtration, and the amount of radioactive ligand bound to the membranes was quantitated by liquid scintillation spectrometry. All incubations were performed in duplicate and the standard error was always less than 10%. The Compound was serially diluted to determine a Ki (nM). […]

T1 sequence (Q9JI35 whole entry): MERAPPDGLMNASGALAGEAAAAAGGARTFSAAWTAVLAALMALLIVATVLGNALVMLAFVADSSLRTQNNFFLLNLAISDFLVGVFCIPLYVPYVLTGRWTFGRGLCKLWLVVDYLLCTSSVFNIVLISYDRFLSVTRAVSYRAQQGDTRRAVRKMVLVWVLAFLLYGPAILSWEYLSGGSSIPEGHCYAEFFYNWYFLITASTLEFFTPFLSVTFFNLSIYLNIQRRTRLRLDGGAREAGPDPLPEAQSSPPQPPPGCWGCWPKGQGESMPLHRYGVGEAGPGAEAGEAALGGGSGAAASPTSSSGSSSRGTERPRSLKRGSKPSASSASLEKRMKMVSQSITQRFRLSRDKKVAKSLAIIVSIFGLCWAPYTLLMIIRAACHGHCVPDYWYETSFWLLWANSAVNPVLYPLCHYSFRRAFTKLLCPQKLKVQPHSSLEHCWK

For `O=C(NCc1ccc(Cc2c[nH]cn2)cc1)Nc1cc(Cl)cc(Cl)c1` [compound of the present invention], the “blood levels of the compound” value [1] was “higher blood levels” and the Ki (H3 receptors) was 4 nM.
